We go through 5 compounds from patent US12083133B2, “Use of cholecalciferol as adjuvant in the treatment of muscular dystrophies” (ABIOGEN PHARMA SPA, priority 2021, dated 2024).

One data set deals with mdx mice. Nature of the data set: Four limb hang test. In kind it is in vivo, mouse. From the text:
For the study, it was chosen as experimental model the mdx (Muscular Dystrophy X-linked) mouse, which has long been used to evaluate the efficacy of drugs against muscular dystrophy and other degenerative diseases that affect skeletal muscles, inducing functional loss. These mice represent the reference animal model for clinical projections, also because they made it possible to overcome the obstacle of the limited availability of human biopsy material for experimental purposes.
The model responds to both steroidal and non-steroidal anti-inflammatory and immunosuppressive treatments and it is also used to study the differential gene and protein expression induced by the various treatments. The test system altogether consisted in 50 C57BL/10ScSn-Dmdxdx/J male mice and 27 C57/BL male mice of about 4-5 weeks of age.
After a short pre-housing period (about 4 days after arrival in the animal enclosure), the animals were subjected to baseline behavioural analyses, as described hereafter. The start time of the analyses, after the pre-housing period, is defined zero time (t=0).
Mice were also subjected to physical exercise with a rotating treadmill (Ugo Basile, Milan) for 15 minutes twice a week at a speed of 12 m/min, to standardize the pathology.
This test was performed at the beginning and at the end of the trial (baseline and final). It is performed using a device that uses a steel grid to measure the mouse's ability to support itself on all four limbs, opposing the force of gravity. The animal is placed on the grid (40×40 cm, delimited by iron strips placed perpendicular to the grid and 5 cm high, with 1 cm squares formed by 1 mm diameter steel wire) which is inverted so that the animal finds itself upside down and hangs on with its paws, about 30 cm from the floor. […] The grid is kept in position for a maximum of 5 minutes and the time, in seconds, during which the animal is able to hang with its paws is recorded.
The results of test are shown in the following table 2 and are expressed in seconds and normalized for the animal's weight. Groups 1-8 reported herein are those described in table 1.

Data set [1] relates to muscle tissue of mdx mice. Description: Histopathologic analyses of muscle tissue (haematoxylin-eosin), graded 0 (absent) to 3 (very high). In kind it is in vivo, mouse. How it is done: These analyses were performed on the material taken during necropsy performed after the sacrifice of the animals of groups 7 and 8. In particular, the quadriceps femoris, the diaphragm and the anterior tibial muscle were collected.
The samples taken and fixed were decalcified, embedded in paraffin according to the known technique, cut into 5-7 μm thick sections and stained with haematoxylin-eosin. The following forms of alteration were evaluated at the muscle tissue level, each of which was classified according to a grade from 0 (absent) to 3 (very high): • Atrophy • Degeneration • Inflammation • Oedema • Presence of adipose tissue • Hypertrophy • Regeneration • Mineralization Results

Another data set deals with Pax7. Nature of the data set: Immunohistochemistry with anti-Pax7 antibody (satellite cells). In kind it is in vivo, mouse. How it is done: (§1) Skeletal muscle growth and regeneration are attributable to satellite cells, which are stem cells resident in the basal lamina surrounding each myofiber. The expression of Pax7 (Paired-Box Transcription Factor 7) is constitutive, that is, this factor is expressed in these cells both in the quiescent and in the activation phase. When satellite cells are activated, they also co-express MyoD, which correlates with active muscle regeneration.
(§2) The expression of Pax7 was then analysed for the identification of satellite cells (progenitors) located under the basal lamina of myofibers, and of MyoD, expressed by myoblasts during proliferation.
(§3) Analyses were performed on the groups after 24 weeks of treatment.
(§4) Samples for immunohistochemistry were included in OCT, placed in isopentane, frozen with liquid nitrogen and kept at −80° C. Anti-Pax7 antibodies were used to label satellite cells and anti-MyoD for myoblasts.

A further data set concerns MyoD. Nature of the data set: Immunohistochemistry with anti-MyoD antibody (proliferating myoblasts). In kind it is in vivo, mouse. As to conditions: mdx mice, 24 weeks of treatment. How it is done:
as §1, §2, §3, §4

The test system of data set [2] is muscle fibres of mdx mice. Nature of the data set: Fluorescence microscopy of muscle fibres (DAPI, anti-WGA). The format is in vivo, mouse. The following applies: 12 weeks of treatment, versus untreated control mdx mice. The source says:
In fluorescence microscopy analyses DAPI staining (blue) was used for nuclei, while an anti-WGA antibody (WGA, or wheat germ agglutinin, Alexa Fluor® 594 conjugate), which stains cell membranes in red, was used to mark muscle fibres.

The conditions of data set [3]: cited from earlier work.
A further data set concerns Duchenne dystrophy. The following applies: state of the art; optimal dose 0.75 mg/kg per day; cited from earlier work.
A further data set relates to muscular dystrophies. As to conditions: state of the art; cited from earlier work.
Setting [4] is: group 8, mdx mice, 175 μg/kg/day once a week, t = 24 weeks, grade 0 to 3.

Entries after “also recorded” stand apart in the source; their conditions may differ.

Regarding `C=C1CC[C@H](O)C/C1=C/C=C1\CCC[C@]2(C)[C@@H]([C@H](C)CCCC(C)C)CC[C@@H]12` [cholecalciferol], in the data set on mdx mice (group 5, mdx mice, 175 μg/kg/day (7000 IU/day) per os once per week for 12 weeks), the “Time in seconds (normalized for the animal's weight) t = 12 weeks” value was determined as 0.8 s. Further, the “Time in seconds (normalized for the animal's weight) t = 0” value in the data set on mdx mice (group 5, mdx mice, baseline before treatment (12-week arm)) is 0.9 s. Besides, in the data set on mdx mice (group 8, mdx mice, 175 μg/kg/day (7000 IU/day) per os once per week for 24 weeks), the “Time in seconds (normalized for the animal's weight) t = 24 weeks” value worked out at 0.9 s. Besides, the “Time in seconds (normalized for the animal's weight) t = 12 weeks” value with mdx mice (group 8, mdx mice, 175 μg/kg/day (7000 IU/day) per os once per week, 24-week arm) was 1.2 s. The “Time in seconds (normalized for the animal's weight) t = 0” value with mdx mice (group 8, mdx mice, baseline before treatment (24-week arm)) amounted to 1.7 s. Further, in the data set on mdx mice (mdx mice, test at 24 weeks), the “Increase in resistance to detachment from the grid, in terms of time, versus untreated mdx animals” value was 80%. In data set [1] (group 8, mdx mice, 175 μg/kg/day once a week, t = 24 weeks, grade 0 (absent) to 3 (very high)), the “Medium Grading: Atrophy” value was found to be 0.44. In addition, in data set [1] (setting [4]), the “Medium Grading: Degeneration” value worked out at 0, the “Medium Grading: Hypertrophy” value is 2.11, the “Medium Grading: Inflammation” value turned out to be 0 and the “Medium Grading: Mineralization” value worked out at 0.33. In data set [1] (setting [4]), the “Medium Grading: Oedema” value was determined as 0.44, the “Medium Grading: Presence of adipose tissue” value came to 0.11 and the “Medium Grading: Regeneration” value is 2.66. For the same compound, the “Microscopic examination of muscle tissue stained with haematoxylin-eosin (in words)” value in data set [1] (mdx mice treated for 24 weeks) is “areas of regeneration and hypertrophy, and only in few cases muscular atrophy, moreover at low levels”. For the same compound, the “Positivity of muscle tissue for anti-Pax7 antibody (marker of satellite cells)” value with Pax7 (mdx mice treated with cholecalciferol) is “highly positive”. Moreover, the “Labelling with anti-Pax7 antibody (satellite cells)” value in the data set with Pax7 (mdx mice, 24 weeks of treatment, versus vehicle-treated mdx mice) is “clearly present and localized on the contours of the muscle fibres; also recorded: more evident”. The “Labelling with anti-MyoD antibody / expression of MyoD” value in the data set with MyoD was “appears extensive; also recorded: restored the expression of MyoD to levels similar to those of wild-type mice”. The “Structure of muscle fibres and position of cell nuclei” value in data set [2] was “cell nuclei distributed both centrally and peripherally and less disrupted muscle fibres; also recorded: visibly less disrupted”. Further, the “Blood half-life (T1/2)” value in data set [3] (estimated) is 19 to 25 h. Further, the Functional half-life entry in data set [3] (related to slow release from adipose tissue) is recorded as “several weeks”.
In the case of `C[C@]12C=CC(=O)C=C1CC[C@@H]1[C@@H]2C(=O)C[C@@]2(C)[C@H]1CC[C@]2(O)C(=O)CO` [prednisone], the “Delay of the progression time of Duchenne dystrophy” value in the data set on Duchenne dystrophy is recorded as “more than 3 years”.
Take `CC(C)(S)[C@@H](N)C(=O)O` [penicillamine]: the “Efficacy as therapy of muscular dystrophies” value (“Efficacy as therapy” below) in the data set with muscular dystrophies was “ineffective”.
Turning to `C[C@]12CC[C@H]3[C@@H](CCC4=CC(=O)CC[C@@]43C)[C@@H]1CC[C@@H]2O` [testosterone], in the data set with muscular dystrophies, the “Efficacy as therapy” value is recorded as “ineffective”.
Consider vitamin E, for which the “Efficacy as therapy” value in the data set on muscular dystrophies is given as “ineffective”.
